Reference: patent publication US20070128217A1 (priority 2003, published 2007)

Assays:
[1] = test system: control sera (pooled serum of ten healthy LUMC hospital workers; commercial negative donor pooled serum from the Dutch bloodbank); assay type: binding, human; parameters: Binding of Control serum LUMC to linear peptides / Binding of Control serum Blood-bank to linear peptides / Binding of Control serum LUMC to looped peptides / Binding of Control Serum Blood-Bank to Looped peptides / Binding of Control serum LUMC to linear peptides of the protein M of SARS-CoV Urbani / Binding of Control serum Blood-bank to linear peptides of the protein M of SARS-CoV Urbani / Binding of Control serum LUMC to looped peptides of the protein M of SARS-CoV Urbani / Binding of Control Serum Blood-Bank to Looped peptides of the protein M of SARS-CoV Urbani: unit not given here
[2] = test system: rabbit serum obtained by immunizing a rabbit with the SARS-CoV strain Frankfurt 1; assay type: binding; parameters: Binding of a rabbit serum to linear peptides / Binding of a rabbit serum to looped peptides / Rabbit serum linear peptides / Rabbit serum looped peptides / Binding of a rabbit serum to linear peptides of protein N of SARS-CoV Urbani (Rabbit serum linear peptides) / Binding of a rabbit serum to looped/cyclic peptides of protein N of SARS-CoV Urbani (Rabbit serum looped peptides): unit not given here
[3] = test system: recombinant human anti-SARS-CoV antibody 03-018; assay type: binding; parameters: Binding of antibody 03-018 to linear peptides of the N protein of SARS-CoV Urbani / Binding of antibody 03-018 to looped/cyclic peptides of the N protein of SARS-CoV Urbani: unit not given here
[4] = test system: antibodies in sera from SARS patients (sera 1a, 1b, 2, 6, 37, 62, London, SARS-yellow, SARS-green); assay type: binding, human; parameters: Binding of serum 6 to linear peptides of protein X1 of SARS-CoV Urbani / Binding of serum 37 to linear peptides of protein X1 of SARS-CoV Urbani / Binding of serum 6 to looped/cyclic peptide (PEPSCAN-ELISA) / Binding of serum 37 to looped/cyclic peptide (PEPSCAN-ELISA) / Binding of serum 37 to looped/cyclic peptides of protein X1 of SARS-CoV Urbani / Binding of serum 6 to linear peptides of protein X2 / Binding of serum 37 to linear peptides of protein X2 / Binding of serum 37 to looped/cyclic peptides of protein X2 of SARS-CoV Urbani / Binding of serum 6 to linear peptides of protein M of SARS-CoV Urbani / Binding of serum 37 to linear peptides of protein M of SARS-CoV Urbani / Binding of serum 6 to looped/cyclic peptides of protein M of SARS-CoV Urbani / Binding of serum 37 to looped/cyclic peptides of protein M of SARS-CoV Urbani / Binding of serum 6 to linear peptides of protein X3 of SARS-CoV Urbani / Binding of serum 37 to linear peptides of protein X3 of SARS-CoV Urbani / Binding of serum 37 to looped/cyclic peptides of protein X3 of SARS-CoV Urbani / Binding of serum 6 to linear peptides of protein X4 of SARS-CoV Urbani / Binding of serum 37 to linear peptides of protein X4 of SARS-CoV Urbani / Binding of serum 37 to looped/cyclic peptides of protein X4 of SARS-CoV Urbani / Binding of serum 6 to linear peptides of protein X5 of SARS-CoV Urbani / Binding of serum 37 to linear peptides of protein X5 of SARS-CoV Urbani / Binding of serum 37 to looped/cyclic peptides of protein X5 of SARS-CoV Urbani / Binding of serum 6 to linear peptides of protein N of SARS-CoV Urbani / Binding of serum 37 to linear peptides of protein N of SARS-CoV Urbani / Binding of serum 6 to linear peptide (PEPSCAN-ELISA) / Binding of serum 1a to looped/cyclic peptides of protein N of SARS-CoV Urbani / Binding of serum 1b to looped/cyclic peptides of protein N of SARS-CoV Urbani / Binding of serum 2 to looped/cyclic peptides of protein N of SARS-CoV Urbani / Binding of serum 6 to looped/cyclic peptides of protein N of SARS-CoV Urbani / Binding of serum 37 to looped/cyclic peptides of protein N of SARS-CoV Urbani / Binding of serum 62 to looped/cyclic peptides of protein N of SARS-CoV Urbani / Binding of serum London to looped/cyclic peptides of protein N of SARS-CoV Urbani / Binding of serum SARS-green to looped/cyclic peptides of protein N of SARS-CoV Urbani: unit not given here

Row | Sequence | Binding of Control Serum Blood-Bank to Looped peptides [1] | Binding of Control serum Blood-bank to linear peptides [1] | Binding of Control serum LUMC to linear peptides [1] | Binding of Control serum LUMC to looped peptides [1] | Recognition of the peptide by the rabbit serum [2] | Binding of serum 1a to linear peptides of protein N of SARS-CoV Urbani [4] | Binding of serum 1a to looped/cyclic peptides of protein N of SARS-CoV Urbani [4] | Binding of serum 1b to linear peptides of protein N of SARS-CoV Urbani [4] | Binding of serum 1b to looped/cyclic peptides of protein N of SARS-CoV Urbani [4] | Binding of serum 2 to linear peptides of protein N of SARS-CoV Urbani [4] | Binding of serum 2 to looped/cyclic peptides of protein N of SARS-CoV Urbani [4] | Binding of serum 6 to linear peptides of protein N of SARS-CoV Urbani [4] | Binding of serum 6 to looped/cyclic peptides of protein N of SARS-CoV Urbani [4] | Binding of serum 37 to looped/cyclic peptides of protein N of SARS-CoV Urbani [4] | Binding of serum 62 to looped/cyclic peptides of protein N of SARS-CoV Urbani [4] | Binding of serum London to looped/cyclic peptides of protein N of SARS-CoV Urbani [4] | Binding of serum SARS-green to looped/cyclic peptides of protein N of SARS-CoV Urbani [4] | Binding of serum SARS-yellow to looped/cyclic peptides of protein N of SARS-CoV Urbani [4] | Binding of antibody 03-018 to linear peptides of the N protein of SARS-CoV Urbani [3] | Binding of antibody 03-018 to looped/cyclic peptides of the N protein of SARS-CoV Urbani [3] | further results
1 | QSNQRSAPRITFGGP | 0.7 | 0.6 | 0.5 | 0.9 | also recognized | 0.2 | 0.5 | 0.1 | 0.3 | 0.2 | 0.6 | 0.1 | 0.4 | 0.8 | 0.7 | 0.5 | 0.5 | 0.7 |  |  | Recognition of the peptide by antibody 03-018 [3]: recognized; Binding of serum 37 to linear peptides of protein N of SARS-CoV Urbani [4]: 0.7; Binding of serum 62 to linear peptides of protein N of SARS-CoV Urbani [4]: 0.7; Binding of serum London to linear peptides of protein N of SARS-CoV Urbani [4]: 0.4; Binding of serum SARS-green to linear peptides of protein N of SARS-CoV Urbani [4]: 0.5; Binding of serum SARS-yellow to linear peptides of protein N of SARS-CoV Urbani [4]: 0.5
2 | QYNVTQAFGRRGPEQ | 0.8 | 0.7 | 0.6 | 0.8 | recognized |  | 0.4 |  | 0.2 |  | 0.4 |  | 0.4 | 0.7 | 0.6 | 0.5 | 0.4 | 0.5 | 0.1 | 0.3 | Binding of serum 1a to linear peptide (PEPSCAN-ELISA) [4]: 0.3; Binding of serum 1b to linear peptide (PEPSCAN-ELISA) [4]: 0.1; Binding of serum 2 to linear peptide (PEPSCAN-ELISA) [4]: 0.1; Binding of serum 6 to linear peptide (PEPSCAN-ELISA) [4]: 0.2; Binding of serum 37 to linear peptide (PEPSCAN-ELISA) [4]: 0.6; Binding of serum 62 to linear peptide (PEPSCAN-ELISA) [4]: 0.6; Binding of serum London to linear peptide (PEPSCAN-ELISA) [4]: 0.4; Binding of serum SARS-green to linear peptide (PEPSCAN-ELISA) [4]: 0.5; Binding of serum SARS-yellow to linear peptide (PEPSCAN-ELISA) [4]: 0.6
3 | RFPRGQGVPINTNSG | 0.6 | 0.8 | 0.6 | 0.5 |  | 0.2 | 0.3 | 0.1 | 0.2 | 0.3 | 0.4 | 0.1 | 0.2 | 0.5 | 0.4 | 0.3 | 0.5 | 0.4 | 0.1 | 0.2 | Binding of a rabbit serum to linear peptides of protein N of SARS-CoV Urbani (Rabbit serum linear peptides) [2]: 0.1; Binding of a rabbit serum to looped/cyclic peptides of protein N of SARS-CoV Urbani (Rabbit serum looped peptides) [2]: 0.5; Binding of serum 37 to linear peptides of protein N of SARS-CoV Urbani [4]: 0.7; Binding of serum 62 to linear peptides of protein N of SARS-CoV Urbani [4]: 0.7; Binding of serum London to linear peptides of protein N of SARS-CoV Urbani [4]: 0.5; Binding of serum SARS-green to linear peptides of protein N of SARS-CoV Urbani [4]: 0.4; Binding of serum SARS-yellow to linear peptides of protein N of SARS-CoV Urbani [4]: 0.6
4 | RGNSPARMASGGGET | 0.6 | 0.8 | 0.7 | 0.5 |  |  | 0.4 |  | 0.3 |  | 0.4 |  | 0.3 | 0.4 | 0.4 | 0.8 | 0.1 | 0.1 | 0.1 | 0.2 | Binding of a rabbit serum to linear peptides of protein N of SARS-CoV Urbani (Rabbit serum linear peptides) [2]: 0.1; Binding of a rabbit serum to looped/cyclic peptides of protein N of SARS-CoV Urbani (Rabbit serum looped peptides) [2]: 0.2; Binding of serum 1a to linear peptide (PEPSCAN-ELISA) [4]: 0.3; Binding of serum 1b to linear peptide (PEPSCAN-ELISA) [4]: 0.1; Binding of serum 2 to linear peptide (PEPSCAN-ELISA) [4]: 0.2; Binding of serum 6 to linear peptide (PEPSCAN-ELISA) [4]: 0.2; Binding of serum 37 to linear peptide (PEPSCAN-ELISA) [4]: 0.5; Binding of serum 62 to linear peptide (PEPSCAN-ELISA) [4]: 0.5; Binding of serum London to linear peptide (PEPSCAN-ELISA) [4]: 0.5; Binding of serum SARS-green to linear peptide (PEPSCAN-ELISA) [4]: 0.1; Binding of serum SARS-yellow to linear peptide (PEPSCAN-ELISA) [4]: 0.5
